Results taken from ChEMBL document CHEMBL3507680, “University of Dundee, Gates Library screen for HepG2 cell viability”.

Experiment: Human HepG2 cell viability assay in 384 well format
Type: toxicity, cell-based
Design: dose 125 nL, time 70.5 hour; cytotoxicity at 70.5 h: concentration not given beside the values
Conditions: HepG2 cells, read-out: Inhibition

SMILES	cytotoxicity at 70.5 h [%]
O=C1CCOC[C@]2(CN(Cc3ccccc3)C[C@H]2c2ccccc2F)N1	1.5
Cc1ncc(C(=O)NCCNc2ccncc2)s1	-3.98
O=C1CC2(CCN(Cc3ccoc3)C2)CN1c1cncnc1 (stereo not drawn)	-4.55
CN(C)CC(c1ccccc1)N(C)C(=O)c1cccc(NCC(=O)O)c1 (stereo not drawn)	-0.106
CCC(NS(=O)(=O)c1ccc(C(=O)NC2CC2)cc1)c1ccnn1C (stereo not drawn)	-7.49
Cc1nc(NC(=O)CCOCC(F)(F)F)ccc1Br	2.27
CNc1cc(C2CN(C(=O)c3cnn(C)c3)CCO2)nc(C)n1 (stereo not drawn)	13.9
O=C(c1cc2c([nH]c1=O)CCC2)N1CCCC1c1cccnc1 (stereo not drawn)	14.6
CC(=O)N1CCN(C(=O)NCCCc2cn[nH]c2C)CC1	-14.4
CCS(=O)(=O)CC(=O)Nc1ccccc1N1CCc2ccccc21	-13.2
CC1(C)CC(CC(=O)N2CC(C)(C)[C@@](C)(O)C2)CC(C)(C)N1	13
CCN(C)CC(=O)N1CCc2nc(NC)nc(C(=O)N3CCCC3)c2C1	2.56
CNS(=O)(=O)c1cccc(CNC(=O)CCc2ccsc2)c1	-4.01
O=C(CCC1CCCO1)NCCc1ccccn1 (stereo not drawn)	-10
CC(=O)NCc1nn(C)c2c1CN(Cc1ccsc1)C2	-6.78
O=C(C1CCN(c2cccnn2)C1)N1CCOCC1 (stereo not drawn)	1.06
O=C1NC[C@H]2CN(C3CCOCC3)CCN12	-4.38
COc1cc(CNCc2ccnc(N3CCCCC3)c2)cc(OC)c1	4.65
c1ccc(CN2CCc3ncnc(-c4cccnc4)c3CC2)nc1	-7.48
N#Cc1c[nH]c(C(=O)N(Cc2ccc(O)cc2)CC2CC2)c1	-2.25
N#Cc1ccc(N2CCC(OC3CCOCC3)CC2)cc1Cl	1.95
COc1ccc(Cl)cc1CS(=O)(=O)CC(=O)N(C)Cc1ccccc1F	-12.1
CN1C[C@@H](F)[C@@H](OCc2nc3ccccc3[nH]2)C1	-5.45

SMILES	cytotoxicity at 70.5 h [%]
O=C(NC1CCCN(c2ccc(OC(F)F)cc2)C1)c1cc[nH]n1 (stereo not drawn)	-11.9
CN(CC1CCOC1)S(=O)(=O)c1cccc(C(=O)N2CCOCC2)c1 (stereo not drawn)	-4.27
Cn1ncc2cnn(CC(O)COCc3ccccc3Cl)c2c1=O (stereo not drawn)	-5.81
O=C(c1ccco1)N1CCC2(CC1)CCN(c1ncccn1)CC2	4.21
Cc1cccc(-c2nc(C)nn2CC(=O)NC2CCCC2)c1	3.32
CSCc1noc(CN2CCCCC2CCc2ccc(O)cc2)n1 (stereo not drawn)	-2.26
CCCNC(=O)C(C)NC(=O)CCc1ccccc1Br (stereo not drawn)	-6.3
CC(=O)c1c(C)nn(CC(=O)N2Cc3cnc(CC(C)C)nc3C2)c1C	-8.3
Cn1cccc1C(CNC(=O)c1ccc(F)cc1F)N1CCCCCC1 (stereo not drawn)	34.1
COc1ccc(C[C@H]2CN(C(=O)c3cnoc3)CC[C@@H]2OC)cc1	-3.97
Cc1cc(C2CCCN(C(=O)CN3CCN(C)CC3)C2)n[nH]1 (stereo not drawn)	-11.8
O=C(c1ccncn1)N1CCC[C@]2(C[C@H](Oc3ncccc3F)CO2)C1	23.2
COC(=O)c1cccc(CN(C)C(C)c2ccccn2)c1 (stereo not drawn)	-24.9
CCC(CO)N(Cc1ccccn1)C(=O)c1ccc(=O)[nH]c1 (stereo not drawn)	-4.96
Cc1nnc(CN2CCOC(c3ccc(Cl)c(Cl)c3)C2)o1 (stereo not drawn)	-3.49
CCn1c(CN(C)C(C)CSC)nc2c(F)cccc21 (stereo not drawn)	-3.45
CNC(=O)[C@H]1C[C@@H]2CN(Cc3c(C)noc3C)C[C@@H]2N1C(C)=O	-3.36
Cn1ccnc1CN1CCc2onc(COCC3CC3)c2C1	-4.62
CN(C)C[C@H]1OC[C@@H]2CCN(C(=O)Cc3cccs3)C[C@@H]21	-9.21
O=C(c1ccc2c(c1)COC2)N1CCCC(n2cncn2)C1 (stereo not drawn)	-4.03
COCC(NC(=O)NCc1sc(C)nc1C)c1ccco1 (stereo not drawn)	7.86
Cc1ncc(-c2ccnc(NC3CC3)n2)c(-c2cccnc2)n1	14.2
NC(=O)c1cnn2c1NCC(CNCCc1ccco1)C2 (stereo not drawn)	-1.07

SMILES	cytotoxicity at 70.5 h [%]
CCOc1ccc(CCCC(=O)N2CC[C@H](NC(C)=O)C2)cc1C	-12.4
CNC(=O)c1ccc(N(C)C2CCC2)nn1	9.71
O=S(=O)(N1CCOCC1)N1CCOC(CCCc2ccccc2)C1 (stereo not drawn)	-11.2
Cc1occc1C(=O)N1Cc2nccn2CC(CN2CCCC2)C1 (stereo not drawn)	-14.1
CC(C#N)CSc1ccccc1NCC(=O)NC(C1CC1)C1CC1 (stereo not drawn)	8.68
Cc1oc(C)c(C(=O)N2CCN(Cc3cscn3)CC2)c1C	-7.99
CC(C)Cc1cc(C(=O)NCC2CCN(c3ccccc3F)C2)on1 (stereo not drawn)	-13.6
CCS(=O)(=O)N1CCC2(CCN(Cc3cccc(OC)c3)CC2)CC1	-2.06
CCC(C)(CC(=O)OC)NCc1c(C)noc1C (stereo not drawn)	-4.55
CN(C)CCn1c2c(ccc1=O)CCN(C(=O)c1cccs1)CC2	-5.63
CCOCC(=O)N1C[C@@H]2CC[C@H](Oc3ccccc3)[C@@H]2C1	-3.41
CC(C)NC(=O)CC1CC2(CCN(CC3CC3)CC2)Oc2ccccc21 (stereo not drawn)	15.7
Cc1cccc(C)c1-n1nnnc1C1(NCc2ccco2)CCCC1	-6.25
c1ccc(C2CCCN2Cc2nc(-c3cnccn3)no2)nc1 (stereo not drawn)	-6.26
CCS(=O)(=O)N1CCC(Nc2c(F)cc(C#N)cc2F)CC1	-9.63
c1ncn(Cc2nnc(C3CCN(CC4CC4)CC3)n2C2CC2)n1	-15.3
CN1CCO[C@@H]2CN(S(=O)(=O)c3ccccc3)C[C@@H]2C1	20.2
Cn1ccc(C(=O)NCCOc2ccc3c(c2)CCC3)cc1=O	-3.77
COc1cccc(CN(Cc2ccco2)Cc2[nH]cnc2C)c1	6.19
O=C(CCc1ccc(Br)cc1F)NS(=O)(=O)c1ccc2c(c1)OCCO2	-3.13
O=C(Nc1ccc(CCN2CCC(O)CC2)cc1)Nc1cccnc1	-1.85
O=C1CC2(CCN(CC3CC3)C2)CN1c1cccnc1 (stereo not drawn)	-9.06
CCN1C(=O)CC[C@]12CC[C@@H](NC(=O)c1cnccn1)CC2	12.9

SMILES	cytotoxicity at 70.5 h [%]
CCC1=N[C@@]2(CC[C@@H]3CN(S(=O)(=O)N(C)C)C[C@@H]32)C(=O)N1CC(C)C	-3.81
Cc1ccc(Cl)cc1NC(=O)Nc1c[nH]c(=O)[nH]c1=O	0.569
Cc1nnc2n1CCN(CC(=O)N1CCc3ccccc3C1)C2	49.9
COc1cc(N2CCC3(CCN(Cc4csc(C)n4)C3=O)C2)ncn1 (stereo not drawn)	-7.86
Cc1nnc(N2CCCC2)c(C(N)=O)c1C	-6.33
CC(Nc1ncnc2c1CCNC2)c1ccc2c(c1)CCCC2 (stereo not drawn)	-2.47
CCCS(=O)(=O)CCN1CCN(c2cc(F)ccc2F)CC1	2.83
COCC1CN(c2ccncn2)Cc2cnn(CC3CCCC3)c21 (stereo not drawn)	-11.3
CN1CCN(C(=O)c2cc(C#N)cn2C)c2ccccc2C1	-2.54
CCn1cc(NC(=O)Nc2ccc3c(c2)OCCO3)cn1	-5.76
NC(=O)NC(=O)CNc1cccc(C(=O)c2ccccc2)c1	13.6
O=C(CCc1ccccc1)C1CCCN(C(=O)c2ncc(F)cc2F)C1 (stereo not drawn)	-3.9
CCNC(=O)CN1CCC(c2cc(OC)cc(OC)c2)C1 (stereo not drawn)	-10.7
Cc1nc(CN2CCN(C(=O)c3ccc(=O)n(C)c3)CC2)cs1	-2.46
CCn1c(C2CCN(C(=O)c3ccc4cc[nH]c4c3)CC2)n[nH]c1=O	9.25
Cc1cc(CN2CCC(CNC(=O)C3(c4ccccc4)CC3)C2)[nH]n1 (stereo not drawn)	6.56
CCc1nc(C2CCCN2CC(=O)NCCOc2ccccc2)no1 (stereo not drawn)	11.4
Cc1cc(C(=O)N[C@H]2CN(CCO)C[C@@H]2C2CC2)sc1C	-3.28
Cc1cc(C)cc(OCCC(=O)N2CCCC(n3cncn3)C2)c1 (stereo not drawn)	-15.5
CCS(=O)(=O)NCC1Cn2nnc(-c3cccc(C)c3)c2CO1 (stereo not drawn)	-5.93
CC1N(CC2CC2)C(=O)COC12CCN(C(=O)c1cscn1)CC2 (stereo not drawn)	-5.04
CC(C)(C)c1cn2nc(N3CCCC(Cn4cncn4)C3)sc2n1 (stereo not drawn)	-9.57
CN(Cc1ccccc1)c1cnn(CC2CCCCO2)c(=O)c1 (stereo not drawn)	-4.54

SMILES	cytotoxicity at 70.5 h [%]
Cc1cc(C(=O)Nc2ccc(OC3CCOCC3)c(C)c2)[nH]n1	-17.3
CC1CN(C(=O)NCc2cnn(-c3ccc(F)cc3F)c2)CCO1 (stereo not drawn)	-11.2
CNC(=O)C1CCN(C(=O)NCc2ccc(-c3ccn[nH]3)cc2)CC1	-3.31
Cc1csc(C2CCCCN2C(=O)CCCn2cncn2)n1 (stereo not drawn)	-9.21
CCN1C[C@@H]2[C@@H](OC)CCN(S(=O)(=O)c3cccnc3)[C@@H]2C1	-10.5
O=C(c1cccc2cc[nH]c12)N1CCC2(CCOC2)C1 (stereo not drawn)	1.91
CC(=O)Nc1ccc(-c2ccccc2NC(=O)CN)cc1	28.6
COCCNC(=O)CCC1CCN(Cc2cccc(SC)c2)CC1	5.26
CC(C)c1ncc(-c2cc(C3CCC3)nc(N)c2C#N)cn1	-8.31
CCN(CC1CCOC1)C(=O)c1ccn(-c2ccc(OC)cc2)n1 (stereo not drawn)	-3.5
CCc1cccc(CC(=O)NC2CCN(C(=O)NC(C)(C)C)CC2)c1	1.52
CC1CCCN(C(=O)C2CCN(c3snc4ccccc34)CC2)C1 (stereo not drawn)	5.93
CC(C)c1cc(CSCCC(=O)O)no1	-4.33
CS(=O)(=O)N1CC[C@H]2OCC[C@@]2(C(=O)NCCc2ccccn2)C1	-7.11
Cc1c(F)cccc1NC(=O)N(C(C)CS(C)(=O)=O)C1CC1 (stereo not drawn)	-4.32
CN1CC(=O)N(c2ccccc2)Cc2c(NC3CC3)ncnc21	0.416
CCn1ncc(C(=O)NCCc2nc(-c3ccc(C)cc3)n[nH]2)c1C	-0.645
COCC(c1cccc(C(F)(F)F)c1)N(C)C(=O)c1cc(C)no1 (stereo not drawn)	20
c1cnc(-c2nn3c(CN4CCCCCC4)nnc3s2)cn1	-8.05
COc1ccccc1S(=O)(=O)N1CC(N(C)C)Cc2ccccc21 (stereo not drawn)	30.7
CS(=O)(=O)N1CCCC12CCN(Cc1nccs1)CC2	-3.49
